Measurements taken from patent US20220386582A1, “METHOD AND DEVICE TO TRAP ACARIDS” (DOMOBIOS, priority 2015, published 2022).

What was measured:
Assay type in all cases: in vivo
[1] = system: Acarus siro; experiment: Toxicity, indirect contact (inhalation, 24 hours)
Method: (§1) FIG. 10 is a set of graphs showing the percentage of dead mites after 24 hours of inhalation of lavandulol at different concentrations (0.18 μL, 3 μL or 8 μL of pure solution) or water (Ctrl). Four species of mites were tested: Dermatophagoides pteronyssinus (DP), Dermatophagoides farinae (DF), Tyrophagus putrescentiae (TP) and Acarus siro (AS).
(§2) The species studied were two species of dust common in mattresses in Eurasia (Dermatophagoides pteronyssinus and Dermatophagoides farinae), and two species of stored food mites common in Eurasia (Tyrophagus putrescentiae and Acarus siro). These four species were reared under defined conditions (20° C. and 75% relative humidity). The house dust mites were fed with human flakes (skin and whiskers obtained by cleaning electric shavers) and stored food mites were fed with fish food. The experiments were performed at 20° C. and 40% relative humidity.
(§3) For each of the four species, a group of a mites (10<n<25) was placed in a Petri dish (diameter 5.5 cm). This dish was then recovered by a filter paper that enabled gas-exchange and placed into another dish (diameter 9 cm), in which was placed a piece of paper filter (5×1 cm) impregnated with lavandulol at various concentration (0.18 μL, 3 μL, or 8 μL of pure solution, corresponding respectively to 0.15 mg, 2.5 mg or 6.67 mg of lavandulol), or with water. The bigger of the two dishes was then covered.
(§4) After 24 hours, the number of dead mites were counted. The death of a mite was determined by reaction to a stimulation with a needle: lack of reaction and the persistence of immobility indicated death. This experiment was repeated three times with the four species.
(§5) Observations and counting of mites were made under binocular microscope (magnification 10×). The set-up is illuminated with a cold lamp (KL 1500 LCD, Schott ●), the lighting is symmetric and the light intensity was 50Klux. The experimental conditions were controlled in the room (T° C.: 19-22° C. and RH 40%).

[2] = system: Dermatophagoides farinae; experiment: Toxicity, indirect contact (inhalation, 24 hours)
Method: as §1, §2, §3, §4, §5

[3] = system: Tyrophagus putrescentiae; experiment: Toxicity, indirect contact (inhalation, 24 hours)
Method: as §1, §2, §3, §4, §5

[4] = system: Dermatophagoides pteronyssinus; experiment: Toxicity, indirect contact (inhalation, 24 hours)
Method: as §1, §2, §3, §4, §5

[5] = system: Dermatophagoides farinae; experiment: Mini-mattress trap: attraction capabilities of attracting solutions sprayed on felt
Method: (§6) Rearing: The species studied were Dermatophagoides pteronyssinus and Dermatophagoides farinae, house dust mite common in mattresses in Eurasia. Mites are reared in Petri dishes and fed with human skin flakes (skin and whiskers obtained by cleaning electric […]). All mites were reared together under defined conditions (20° C. and 75% relative humidity). The experiments took place in a room kept at 20° C. and 40% relative humidity. Aim of the experiments: The aim was to test the trap in condition similar to the conditions that will be met by the user of the trap. Materials and methods: The mattresses were built at a smaller scale (15× reduction) than usual mattresses. These mini-mattresses are made in polyurethane and covered by a cover in cotton. They were infested with mites since at least 3 months. The fabric was a felt of 20 mg/cm^2 and is a rectangle of 10 cm×20 cm. It was placed on the mini-mattress. Then the attracting solution was sprayed on the fabric with a spray bottle. The fabric was left in place on the mattress during one hour. During this time, the mites moved in the felt. It is very difficult to count directly the mites hidden in the mattress and in the fabric. Therefore, we used a Berlèse funnel which is a device that is usually used to separate insects from litter. Here, it was used to separate the mites from their mattress or from the fabric. The Berlèse funnel uses a light bulb to heat and dry the mattress, thus driving the mites downwards through a screen and into a collecting jar containing some food and some water. […] They are attracted by a source of moisture and the smell of food. The mattress or blanket were therefore placed in the funnel (FIG. 2). The mites went downwards in the direction of the jar, then in the jar. The harvest of the jar containing the mites took place after one day. Mites had then 24 hours to migrate to the jar collector. As a substantial proportion of the population is immobile (moulting mites), trapping is less efficient than it would be otherwise and estimate of population size that is trapped are likely to be biased. To avoid this bias and make a proper assessment of the populations in infested mattresses, mattresses were carefully brushed with a soft brush at the end of the manipulation meaning that immobile mites and eggs also fall into the funnel. Fabric was carefully brushed too. The Berlèze funnel was rinsed with ethanol. Thus, mites still on the inner wall of the funnel were driven by ethanol in the jar collector. At the end of the experiment, the jar contained: the food used as attracting to mites, a small amount of water also used for attracting, mites, and ethanol. The jar was emptied into a Petri dish and we counted mites under binocular. Counting of mites was made under binocular microscope (magnification 10×). The set-up is illuminated with a cold lamp (KL 1500 LCD, Schott ●). The felt was sprayed with different attracting compositions: a solution of lavandulol, a solution of Tween 60, a combination of lavandulol and Tween 60, a solution of citral, and the attracting solution commercialized under the brand name Acar'up were compared at various dilutions.

[6] = system: Dermatophagoides pteronyssinus; experiment: as above
Method: as §6

[7] = system: mites; experiment: Short (5 minutes) exposure without drying time on consecutive days (FIG. 9); conditions: lavandulol diluted at 10^−6, 5 minutes exposure, no drying time; first day of treatment
Method: FIG. 9 is a graph representing the attracting efficiency of a 5 minutes time exposure of a composition comprising lavandulol diluted at 10^−6. The graph represents the percentage of mites trapped by a fabric sprayed with compositions, as a function of the days of exposure to the attracting composition. Similar experiments were performed to determine attractiveness of mites when an attracting solution comprising one or more attractive agents is exposed during a short time without drying time.

[8] = pure lavandulol volumes of 3 μL and 8 μL
[9] = Dilution 10^−6 (* mixture of a lavandulol solution at 10^−6 and a Tween 60 solution at 10^−6)

C=C(C)C(CO)CC=C(C)C (stereo not shown) [Lavandulol, 5-Methyl-2-prop-1-en-2-ylhex-4-en-1-ol]
mortality of mites by inhalation ([1]; lavandulol volume of 0.18 μL): not lethal | mortality of mites by inhalation [1, 8]: high mortality | mortality of mites by inhalation ([2]; lavandulol volume of 0.18 μL): not lethal | mortality of mites by inhalation [2, 8]: high mortality | mortality of mites by inhalation ([3]; lavandulol volume of 0.18 μL): not lethal | mortality of mites by inhalation [3, 8]: high mortality | mortality of mites by inhalation ([4]; lavandulol volume of 0.18 μL): not lethal | mortality of mites by inhalation [4, 8]: high mortality | attraction capabilities, percentage of mites ([5]; Dilution 10^−3): 57% | attraction capabilities, percentage of mites ([5]; Dilution 10^−5): 90% | attraction capabilities, percentage of mites [5, 9]: 71% | attraction capabilities, percentage of mites ([5]; Dilution 10^−8): 37% | attraction capabilities, percentage of mites ([5]; Dilution 10^−9): 28% | attraction capabilities, percentage of mites ([5]; Dilution Undiluted): 6% | attraction capabilities, percentage of mites ([6]; Dilution 10^−1): 34% | attraction capabilities, percentage of mites ([6]; Dilution 10^−3): 56% | attraction capabilities, percentage of mites ([6]; Dilution 10^−5): 91% | attraction capabilities, percentage of mites [6, 9]: 64% | attraction capabilities, percentage of mites ([6]; Dilution 10^−8): 46% | attraction capabilities, percentage of mites ([6]; Dilution 10^−9): 55% | attraction capabilities, percentage of mites ([6]; Dilution Undiluted): 8% | percentage of mites attracted in the sheet [7]: very high
